Assay results reported in ChEMBL document CHEMBL4376829, “Discovery and biological evaluation of vinylsulfonamide derivatives as highly potent, covalent TEAD autopalmitoylation inhibitors” (Eur J Med Chem, 2019).

Legend:
[1] = biological target: CDC7/Cyclin B1 (Homo sapiens) (UniProt P14635+O00311); experiment: Inhibition of full-length recombinant human Cdc7/CyclinB1 at 10 uM using histone H1 as substrate after 120 mins by in presence of [gamma33P]ATP by scintillation counting method relative to control; type: protein-complex assay
[2] = biological target: Activated CDC42 kinase 1 (Homo sapiens) (UniProt Q07912); experiment: Inhibition of human ACK1 (1 to 389 residues) at 10 uM using EFPIYDFLPAKKK as substrate after 40 mins in presence of [gamma33P]ATP by scintillation counting method relative to control
[3] = biological target: SRSF protein kinase 1 (Homo sapiens) (UniProt Q96SB4); experiment: Inhibition of recombinant human SRPK1 (2 to end residues) at 10 uM using RSRSRSRSRSRSRSR as substrate measured after 40 mins in presence of [gamma33P]ATP by scintillation counting method relative to control
[4] = biological target: Insulin receptor (Homo sapiens) (UniProt P06213); experiment: Inhibition of recombinant human IR activated (1005 to 1310 residues) at 10 uM using KKSRGDYMTMQIG as substrate after 40 mins in presence of [gamma33P]ATP by scintillation counting method relative to control
Chain of Insulin receptor (Homo sapiens) (P06213 28-758 limits assumed): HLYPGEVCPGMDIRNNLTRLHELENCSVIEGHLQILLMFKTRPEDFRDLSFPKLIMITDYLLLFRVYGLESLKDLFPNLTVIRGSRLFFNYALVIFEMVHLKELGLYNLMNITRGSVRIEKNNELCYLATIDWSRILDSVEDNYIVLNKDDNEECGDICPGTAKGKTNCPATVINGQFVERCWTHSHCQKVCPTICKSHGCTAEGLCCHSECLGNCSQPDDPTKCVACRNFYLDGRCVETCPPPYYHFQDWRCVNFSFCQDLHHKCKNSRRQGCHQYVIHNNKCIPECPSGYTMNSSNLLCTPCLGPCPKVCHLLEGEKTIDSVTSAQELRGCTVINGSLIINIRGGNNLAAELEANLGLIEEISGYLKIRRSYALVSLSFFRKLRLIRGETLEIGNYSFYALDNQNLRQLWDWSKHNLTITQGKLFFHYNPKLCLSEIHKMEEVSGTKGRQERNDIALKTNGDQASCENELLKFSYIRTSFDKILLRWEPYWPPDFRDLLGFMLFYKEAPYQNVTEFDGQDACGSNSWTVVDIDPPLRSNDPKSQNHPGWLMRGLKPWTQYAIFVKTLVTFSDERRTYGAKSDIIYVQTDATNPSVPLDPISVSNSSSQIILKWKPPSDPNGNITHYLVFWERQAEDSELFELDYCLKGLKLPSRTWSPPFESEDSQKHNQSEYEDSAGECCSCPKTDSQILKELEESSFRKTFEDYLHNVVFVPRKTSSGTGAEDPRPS
Chain of Insulin receptor (Homo sapiens) (P06213 763-1382 limits assumed): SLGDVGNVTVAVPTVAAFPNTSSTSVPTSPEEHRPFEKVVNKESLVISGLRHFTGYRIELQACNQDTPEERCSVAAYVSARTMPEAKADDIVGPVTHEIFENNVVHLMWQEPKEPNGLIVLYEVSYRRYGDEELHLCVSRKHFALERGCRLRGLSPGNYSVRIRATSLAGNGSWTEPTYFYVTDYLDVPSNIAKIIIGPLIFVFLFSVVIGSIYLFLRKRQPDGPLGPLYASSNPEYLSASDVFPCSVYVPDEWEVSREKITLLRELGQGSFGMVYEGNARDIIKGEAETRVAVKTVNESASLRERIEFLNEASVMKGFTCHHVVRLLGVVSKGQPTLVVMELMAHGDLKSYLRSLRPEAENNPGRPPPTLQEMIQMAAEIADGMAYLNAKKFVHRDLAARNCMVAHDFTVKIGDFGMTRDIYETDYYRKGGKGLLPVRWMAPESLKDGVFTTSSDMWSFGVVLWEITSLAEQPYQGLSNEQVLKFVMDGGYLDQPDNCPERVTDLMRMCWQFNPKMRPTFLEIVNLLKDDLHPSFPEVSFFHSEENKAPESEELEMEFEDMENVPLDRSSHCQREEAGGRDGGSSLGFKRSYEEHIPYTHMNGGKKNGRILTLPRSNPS

Chain of Activated CDC42 kinase 1 (Homo sapiens) (Q07912 whole entry, looked up, the tested form may be a part): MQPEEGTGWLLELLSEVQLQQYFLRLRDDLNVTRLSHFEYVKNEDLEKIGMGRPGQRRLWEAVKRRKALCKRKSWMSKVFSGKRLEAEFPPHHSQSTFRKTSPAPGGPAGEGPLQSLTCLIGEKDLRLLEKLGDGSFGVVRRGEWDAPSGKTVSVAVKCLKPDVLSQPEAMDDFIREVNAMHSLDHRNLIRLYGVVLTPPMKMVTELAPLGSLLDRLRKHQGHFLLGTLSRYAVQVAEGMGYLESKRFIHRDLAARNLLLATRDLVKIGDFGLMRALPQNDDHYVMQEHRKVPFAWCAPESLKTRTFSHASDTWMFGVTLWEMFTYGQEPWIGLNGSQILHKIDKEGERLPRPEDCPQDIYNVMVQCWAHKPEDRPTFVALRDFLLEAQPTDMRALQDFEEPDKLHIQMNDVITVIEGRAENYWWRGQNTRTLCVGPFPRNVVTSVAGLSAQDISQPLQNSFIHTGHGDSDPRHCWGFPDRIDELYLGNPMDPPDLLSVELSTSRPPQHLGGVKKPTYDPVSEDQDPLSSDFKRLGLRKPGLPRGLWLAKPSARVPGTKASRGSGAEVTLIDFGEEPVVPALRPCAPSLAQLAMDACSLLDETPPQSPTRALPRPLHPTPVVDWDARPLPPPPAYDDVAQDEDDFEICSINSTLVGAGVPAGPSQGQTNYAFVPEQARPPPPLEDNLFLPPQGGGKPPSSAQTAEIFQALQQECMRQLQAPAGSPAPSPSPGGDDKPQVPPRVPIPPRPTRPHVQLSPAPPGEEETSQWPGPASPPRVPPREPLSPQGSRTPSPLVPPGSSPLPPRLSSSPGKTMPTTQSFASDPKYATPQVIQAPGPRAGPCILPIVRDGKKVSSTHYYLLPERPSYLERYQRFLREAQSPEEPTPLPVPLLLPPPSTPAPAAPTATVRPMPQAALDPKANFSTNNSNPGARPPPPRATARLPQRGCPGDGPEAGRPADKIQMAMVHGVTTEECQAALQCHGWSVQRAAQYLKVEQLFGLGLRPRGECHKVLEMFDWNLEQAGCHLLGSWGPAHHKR
Chain of CDC7/Cyclin B1 (Homo sapiens) (O00311 whole entry, looked up, the tested form may be a part): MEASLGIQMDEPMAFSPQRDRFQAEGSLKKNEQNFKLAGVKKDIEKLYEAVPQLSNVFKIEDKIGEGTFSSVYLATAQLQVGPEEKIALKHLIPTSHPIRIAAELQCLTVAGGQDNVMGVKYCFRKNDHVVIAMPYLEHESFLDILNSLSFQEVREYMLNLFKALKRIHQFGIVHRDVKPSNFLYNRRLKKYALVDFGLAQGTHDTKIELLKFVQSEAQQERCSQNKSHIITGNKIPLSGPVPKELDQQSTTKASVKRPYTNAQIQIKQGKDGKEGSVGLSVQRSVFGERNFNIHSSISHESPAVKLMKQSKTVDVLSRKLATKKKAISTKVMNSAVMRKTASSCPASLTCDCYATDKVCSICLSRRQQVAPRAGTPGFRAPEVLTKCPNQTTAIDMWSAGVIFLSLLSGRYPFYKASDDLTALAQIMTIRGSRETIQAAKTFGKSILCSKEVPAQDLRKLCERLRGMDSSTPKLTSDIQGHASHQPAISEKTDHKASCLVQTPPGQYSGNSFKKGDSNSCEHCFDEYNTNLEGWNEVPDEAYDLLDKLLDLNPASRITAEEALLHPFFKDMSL
Chain of CDC7/Cyclin B1 (Homo sapiens) (P14635 whole entry, looked up, the tested form may be a part): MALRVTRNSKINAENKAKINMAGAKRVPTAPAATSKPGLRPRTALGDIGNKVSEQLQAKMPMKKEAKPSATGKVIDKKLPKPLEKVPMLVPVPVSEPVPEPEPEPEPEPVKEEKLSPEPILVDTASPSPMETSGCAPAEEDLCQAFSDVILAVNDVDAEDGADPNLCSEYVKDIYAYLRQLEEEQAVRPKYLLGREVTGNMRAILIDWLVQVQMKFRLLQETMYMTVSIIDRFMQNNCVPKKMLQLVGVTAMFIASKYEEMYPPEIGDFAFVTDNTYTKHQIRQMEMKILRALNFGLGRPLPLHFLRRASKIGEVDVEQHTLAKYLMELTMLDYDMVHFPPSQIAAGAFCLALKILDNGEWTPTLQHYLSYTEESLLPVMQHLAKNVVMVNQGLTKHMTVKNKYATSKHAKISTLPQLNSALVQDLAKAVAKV
Chain of SRSF protein kinase 1 (Homo sapiens) (Q96SB4 whole entry, the tested form may be a part): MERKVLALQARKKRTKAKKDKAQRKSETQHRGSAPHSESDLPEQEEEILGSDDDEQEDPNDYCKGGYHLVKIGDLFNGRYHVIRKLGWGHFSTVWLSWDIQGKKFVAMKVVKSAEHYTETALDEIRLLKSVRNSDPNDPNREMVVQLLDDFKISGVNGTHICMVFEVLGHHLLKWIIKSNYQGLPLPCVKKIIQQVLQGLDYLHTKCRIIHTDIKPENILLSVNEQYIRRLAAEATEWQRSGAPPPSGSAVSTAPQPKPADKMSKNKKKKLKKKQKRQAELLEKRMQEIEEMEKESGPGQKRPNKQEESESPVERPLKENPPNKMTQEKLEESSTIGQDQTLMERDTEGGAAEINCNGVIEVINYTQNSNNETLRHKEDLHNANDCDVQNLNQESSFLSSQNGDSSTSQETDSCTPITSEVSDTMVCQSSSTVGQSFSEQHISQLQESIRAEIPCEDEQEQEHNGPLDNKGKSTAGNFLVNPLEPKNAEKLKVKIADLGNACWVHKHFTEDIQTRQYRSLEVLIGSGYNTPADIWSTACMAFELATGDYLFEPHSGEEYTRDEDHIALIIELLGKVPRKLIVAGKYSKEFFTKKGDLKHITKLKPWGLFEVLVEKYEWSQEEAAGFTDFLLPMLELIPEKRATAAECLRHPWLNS

Compound: C=CS(=O)(=O)Nc1ccc(Cc2ccc3ccccc3c2)cc1
- inhibition [1]: 21%
- inhibition [2]: 10%
- inhibition [3]: 8%
- inhibition [4]: 5%
